Key:
Format in all cases: in vivo
[1] = test system: Italian ryegrass (Lolium multiflorum); assay: Test A preemergence, visual injury rating; details: Lolium multiflorum, pre-emergence, 240 h, 0 to 100 scale (0 no effect, 100 complete control), read-out: Ryegrass, Italian plant response rating
How it was run: (§1)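 Greenhouse pot test, loam/sand soil. Formulation: non-phytotoxic solvent mix plus surfactant. Pre: directed spray onto soil after sowing. Post: plants at 1–2 leaf, 2–10 cm. Rated visually vs untreated controls at ~10 d, 0 (no effect) to 100 (complete control).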

[2] = test system: barnyardgrass (Echinochloa crus-galli); assay: Test A preemergence, visual injury rating; details: Echinochloa crus-galli, pre-emergence, 240 h, 0 to 100 scale (0 no effect, 100 complete control), read-out: Barnyardgrass plant response rating
How it was run: as §1

[3] = test system: giant foxtail (Setaria faberii); assay: Test A preemergence, visual injury rating; details: Setaria faberi, pre-emergence, 240 h, 0 to 100 scale (0 no effect, 100 complete control), read-out: Foxtail, Giant plant response rating
How it was run: as §1

[4] = test system: ragweed (common ragweed, Ambrosia elatior); assay: Test A preemergence, visual injury rating; details: Ambrosia artemisiifolia, pre-emergence, 240 h, 0 to 100 scale (0 no effect, 100 complete control), read-out: Ragweed plant response rating
How it was run: as §1

[5] = test system: blackgrass (Alopecurus myosuroides); assay: Test C preemergence, plant response rating; details: Alopecurus myosuroides, pre-emergence, Preemergence
Text: (§2) Seeds of plant species selected from blackgrass (Alopecurus myosuroides), ryegrass, Italian (Italian ryegrass, Lolium multiflorum), wheat (winter wheat, Triticum aestivum), galium (catchweed bedstraw, Galium aparine), corn (Zea mays), crabgrass, large (large crabgrass, Digitaria sanguinalis), foxtail, giant (giant foxtail, Setaria faberii), johnsongrass (Sorghum halepense), lambsquarters (Chenopodium album), morningglory (Ipomoea coccinea), nutsedge, yellow (yellow nutsedge, Cyperus esculentus), pigweed (Amaranthus retroflexus), ragweed (common ragweed, Ambrosia elatior), soybean (Glycine max), barnyardgrass (Echinochloa crus-galli), oilseed rape (Brassica napus), pigweed, palmer (palmer pigweed, Amaranthus palmeri), waterhemp (common waterhemp, Amaranthus rudis), velvetleaf (Abutilon theophrasti), kochia (Kochia scoparia), surinam grass (Brachiaria decumbens), nightshade (eastern black nightshade, Solanum ptycanthum), wild poinsettia (Euphorbia heterophylla), windgrass (Apera spica-venti), and oat, wild (wild oat Avena fatua), were planted into a blend of loam soil and sand or a silt loam soil and treated preemergence with test chemicals formulated in a non-phytotoxic solvent mixture which included a surfactant.
(§3) At the same time, plants selected from these crop and weed species and also chickweed (common chickweed, Stellaria media), buckwheat, wild (wild buckwheat, Polygonum convolvulus), wild mustard (Sinapis arvensis), field poppy (Papaver rhoeas), field violet (Viola arvensis), geranium, cutleaf (cutleaf geranium, Geranium dissectum), Canada thistle (Cirsium arvense), and speedwell (bird's-eye speedwell, Veronica persica), were planted in pots containing Sunshine Redi-Earth® planting medium comprising spaghnum peat moss, vermiculite, starter nutrients and dolomitic limestone and treated with postemergence applications of test chemicals formulated in the same manner. Plants ranged in height from 2 to 18 cm (1- to 4-leaf stage) for postemergence treatments. Treated plants and controls were maintained in a greenhouse for 13 to 15 d, after which time all species were compared to controls and visually evaluated. Plant response ratings, summarized in Table C, are based on a scale of 0 to 100 where 0 is no effect and 100 is complete control. A dash (-) response means no test result.

corn (Zea mays) = assay: Test C preemergence, plant response rating; details: Zea mays, pre-emergence, Preemergence
Text: as §2, §3

[6] = test system: crabgrass, large (large crabgrass, Digitaria sanguinalis); assay: Test C preemergence, plant response rating; details: Digitaria sanguinalis, pre-emergence, Preemergence
Text: as §2, §3

[7] = test system: foxtail, giant (giant foxtail, Setaria faberii); assay: Test C preemergence, plant response rating; details: Setaria faberi, pre-emergence, Preemergence
Text: as §2, §3

[8] = test system: lambsquarters (Chenopodium album); assay: Test C preemergence, plant response rating; details: Chenopodium album, pre-emergence, Preemergence
Text: as §2, §3

[9] = test system: morningglory (Ipomoea coccinea); assay: Test C preemergence, plant response rating; details: Ipomoea, pre-emergence, Preemergence
Text: as §2, §3

[10] = test system: nutsedge, yellow (yellow nutsedge, Cyperus esculentus); assay: Test C preemergence, plant response rating; details: Cyperus, pre-emergence, Preemergence
Text: as §2, §3

[11] = test system: oilseed rape (Brassica napus); assay: Test C preemergence, plant response rating; details: Brassica napus, pre-emergence, Preemergence
Text: as §2, §3

[12] = test system: ragweed (common ragweed, Ambrosia elatior); assay: Test C preemergence, plant response rating; details: Ambrosia artemisiifolia, pre-emergence, Preemergence
Text: as §2, §3

[13] = test system: ryegrass, Italian (Italian ryegrass, Lolium multiflorum); assay: Test C preemergence, plant response rating; details: Lolium multiflorum, pre-emergence, Preemergence
Text: as §2, §3

soybean (Glycine max) = assay: Test C preemergence, plant response rating; details: Glycine max, pre-emergence, Preemergence
Text: as §2, §3

[14] = test system: velvetleaf (Abutilon theophrasti); assay: Test C preemergence, plant response rating; details: Abutilon theophrasti, pre-emergence, Preemergence
Text: as §2, §3

[15] = test system: waterhemp (common waterhemp, Amaranthus rudis); assay: Test C preemergence, plant response rating; details: Amaranthus tuberculatus, pre-emergence, Preemergence
Text: as §2, §3

[16] = test system: wheat (winter wheat, Triticum aestivum); assay: Test C preemergence, plant response rating; details: Triticum aestivum, pre-emergence, Preemergence
Text: as §2, §3

## CC(CC(F)(F)F)OC(=O)c1c(Br)cccc1Oc1ncc(Cl)cn1 (stereo not shown) [Compound 16, 3,3,3-trifluoro-1-methylpropyl 2-bromo-6-[(5-chloro-2-pyrimidinyl)oxy]benzoate]
[1]; 125 g ai/ha
  pest or weed control at 125 g/ha: 0%
[1]; 500 g ai/ha
  pest or weed control at 500 g/ha: 20%
[2]; 125 g ai/ha
  pest or weed control at 125 g/ha: 30%
[2]; 500 g ai/ha
  pest or weed control at 500 g/ha: 100%
[3]; 125 g ai/ha
  pest or weed control at 125 g/ha: 90%
[3]; 500 g ai/ha
  pest or weed control at 500 g/ha: 100%
[4]; 125 g ai/ha
  pest or weed control at 125 g/ha: 0%
[4]; 500 g ai/ha
  pest or weed control at 500 g/ha: 0%
[5]; 62 g ai/ha, scale of 0 to 100
  pest or weed control at 62 g/ha: 5%
[5]; 125 g ai/ha, scale of 0 to 100
  pest or weed control at 125 g/ha: 10%
[5]; 16 g ai/ha, scale 0 to 100
  pest or weed control at 16 g/ha: 0%
[5]; 31 g ai/ha, scale 0 to 100
  pest or weed control at 31 g/ha: 0%
Corn (Zea mays); 62 g ai/ha, scale of 0 to 100
  Corn plant response rating (crop injury, 0 = no effect, 100 = complete kill) at 62 g/ha: 0%
Corn (Zea mays); 125 g ai/ha, scale of 0 to 100
  Corn plant response rating (crop injury, 0 = no effect, 100 = complete kill) at 125 g/ha: 10%
Corn (Zea mays); 16 g ai/ha, scale 0 to 100
  Corn plant response rating (crop injury, 0 = no effect, 100 = complete kill) at 16 g/ha: 0%
Corn (Zea mays); 31 g ai/ha, scale 0 to 100
  Corn plant response rating (crop injury, 0 = no effect, 100 = complete kill) at 31 g/ha: 0%
[6]; 62 g ai/ha, scale of 0 to 100
  pest or weed control at 62 g/ha: 90%
[6]; 125 g ai/ha, scale of 0 to 100
  pest or weed control at 125 g/ha: 100%
[6]; 16 g ai/ha, scale 0 to 100
  pest or weed control at 16 g/ha: 5%
[6]; 31 g ai/ha, scale 0 to 100
  pest or weed control at 31 g/ha: 75%
[7]; 62 g ai/ha, scale of 0 to 100
  pest or weed control at 62 g/ha: 90%
[7]; 125 g ai/ha, scale of 0 to 100
  pest or weed control at 125 g/ha: 100%
[7]; 16 g ai/ha, scale 0 to 100
  pest or weed control at 16 g/ha: 5%
[7]; 31 g ai/ha, scale 0 to 100
  pest or weed control at 31 g/ha: 25%
[8]; 125 g ai/ha, scale of 0 to 100
  pest or weed control at 125 g/ha: 50%
[8]; 16 g ai/ha, scale 0 to 100
  pest or weed control at 16 g/ha: 0%
[8]; 31 g ai/ha, scale 0 to 100
  pest or weed control at 31 g/ha: 20%
[8]; 62 g ai/ha, scale 0 to 100
  pest or weed control at 62 g/ha: 20%
[9]; 125 g ai/ha, scale of 0 to 100
  pest or weed control at 125 g/ha: 25%
[9]; 16 g ai/ha, scale 0 to 100
  pest or weed control at 16 g/ha: 10%
[9]; 31 g ai/ha, scale 0 to 100
  pest or weed control at 31 g/ha: 0%
[9]; 62 g ai/ha, scale 0 to 100
  pest or weed control at 62 g/ha: 25%
[10]; 125 g ai/ha, scale of 0 to 100
  pest or weed control at 125 g/ha: 0%
[10]; 16 g ai/ha, scale 0 to 100
  pest or weed control at 16 g/ha: 0%
[10]; 31 g ai/ha, scale 0 to 100
  pest or weed control at 31 g/ha: 0%
[10]; 62 g ai/ha, scale 0 to 100
  pest or weed control at 62 g/ha: 0%
[11]; 125 g ai/ha, scale of 0 to 100
  plant injury at 125 g/ha: 100%
[11]; 16 g ai/ha, scale 0 to 100
  plant injury at 16 g/ha: 0%
[11]; 31 g ai/ha, scale 0 to 100
  plant injury at 31 g/ha: 50%
[11]; 62 g ai/ha, scale 0 to 100
  plant injury at 62 g/ha: 60%
[12]; 125 g ai/ha, scale of 0 to 100
  pest or weed control at 125 g/ha: 0%
[12]; 16 g ai/ha, scale 0 to 100
  pest or weed control at 16 g/ha: 0%
[12]; 31 g ai/ha, scale 0 to 100
  pest or weed control at 31 g/ha: 0%
[12]; 62 g ai/ha, scale 0 to 100
  pest or weed control at 62 g/ha: 5%
[13]; 125 g ai/ha, scale of 0 to 100
  pest or weed control at 125 g/ha: 5%
[13]; 16 g ai/ha, scale 0 to 100
  pest or weed control at 16 g/ha: 0%
[13]; 31 g ai/ha, scale 0 to 100
  pest or weed control at 31 g/ha: 0%
[13]; 62 g ai/ha, scale 0 to 100
  pest or weed control at 62 g/ha: 5%
Soybean (Glycine max); 125 g ai/ha, scale of 0 to 100
  plant injury at 125 g/ha: 5%
Soybean (Glycine max); 16 g ai/ha, scale 0 to 100
  plant injury at 16 g/ha: 0%
Soybean (Glycine max); 31 g ai/ha, scale 0 to 100
  plant injury at 31 g/ha: 0%
Soybean (Glycine max); 62 g ai/ha, scale 0 to 100
  plant injury at 62 g/ha: 0%
[14]; 125 g ai/ha, scale of 0 to 100
  pest or weed control at 125 g/ha: 75%
[14]; 16 g ai/ha, scale 0 to 100
  pest or weed control at 16 g/ha: 0%
[14]; 31 g ai/ha, scale 0 to 100
  pest or weed control at 31 g/ha: 5%
[14]; 62 g ai/ha, scale 0 to 100
  pest or weed control at 62 g/ha: 50%
[15]; 125 g ai/ha, scale of 0 to 100
  pest or weed control at 125 g/ha: 100%
[15]; 16 g ai/ha, scale 0 to 100
  pest or weed control at 16 g/ha: 10%
[15]; 31 g ai/ha, scale 0 to 100
  pest or weed control at 31 g/ha: 60%
[15]; 62 g ai/ha, scale 0 to 100
  pest or weed control at 62 g/ha: 85%
[16]; 125 g ai/ha, scale of 0 to 100
  plant injury at 125 g/ha: 0%
[16]; 16 g ai/ha, scale 0 to 100
  plant injury at 16 g/ha: 0%
[16]; 31 g ai/ha, scale 0 to 100
  plant injury at 31 g/ha: 0%
[16]; 62 g ai/ha, scale 0 to 100
  plant injury at 62 g/ha: 0%
